Measurements as given in ChEMBL document CHEMBL1201862, “PubChem BioAssay data set” (2004).
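The compound was tested at five concentrations on cells cultured in 96-well plates, with a 48-hour exposure period. GI50 is the concentration that inhibits growth by half.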 Active and inactive are the calls of the source. Rule as the data show it: active = GI50 up to about 1.1 µM and inactive = higher.

Columns and labels:
Assay in all cases: NCI anticancer screen, dose series, 48 h
PC-3 = system: PC-3
RXF 393 = system: RXF 393
SK-MEL-5 = system: SK-MEL-5
MDA-MB-231 = system: MDA-MB-231
KM12 = system: KM12
HL-60 = system: HL-60
MOLT-4 = system: MOLT-4
HCC 2998 = system: HCC 2998
NCI-H226 = system: NCI-H226
OVCAR-4 = system: OVCAR-4
A549 = system: A549
UACC-62 = system: UACC-62
HOP-62 = system: HOP-62
DU-145 = system: DU-145
SK-MEL-28 = system: SK-MEL-28
M14 = system: M14
HOP-92 = system: HOP-92
UACC-257 = system: UACC-257
UO-31 = system: UO-31
MDA-MB-435 = system: MDA-MB-435
MDA-N = system: MDA-N
T47D = system: T47D
OVCAR-8 = system: OVCAR-8
LOX IMVI = system: LOX IMVI
ACHN = system: ACHN
NCI-H522 = system: NCI-H522
786-0 = system: 786-0
RPMI-8226 = system: RPMI-8226
Hs-578T = system: Hs-578T
K562 = system: K562
SN12C = system: SN12C
TK-10 = system: TK-10
BT-549 = system: BT-549
U-251 = system: U-251
SF-295 = system: SF-295
OVCAR-3 = system: OVCAR-3
A498 = system: A498
SF-268 = system: SF-268
CAKI-1 = system: CAKI-1
NCI-H23 = system: NCI-H23
IGROV-1 = system: IGROV-1
SK-MEL-2 = system: SK-MEL-2
SF-539 = system: SF-539
HCT-116 = system: HCT-116
OVCAR-5 = system: OVCAR-5
CCRF-CEM = system: CCRF-CEM
HCT-15 = system: HCT-15
EKVX = system: EKVX
NCI-H460 = system: NCI-H460
Malme-3M = system: Malme-3M
SR = system: SR
SNB-19 = system: SNB-19
SK-OV-3 = system: SK-OV-3
HT-29 = system: HT-29
NCI/ADR-RES = system: NCI/ADR-RES
COLO 205 = system: COLO 205
SW-620 = system: SW-620
MCF7 = system: MCF7
SNB-75 = system: SNB-75

## CN(C)CCCN1c2ccccc2Sc2ccc3ccccc3c21
PC-3
  GI50: 3.75 µM (inactive)
RXF 393
  GI50: 1.65 µM (inactive)
SK-MEL-5
  GI50: 4.17 µM (inactive)
MDA-MB-231
  GI50: 3.15 µM (inactive)
KM12
  GI50: 6.58 µM (inactive)
HL-60
  GI50: < 0.01 µM (active)
MOLT-4
  GI50: 2.92 µM (inactive)
HCC 2998
  GI50: 1.53 µM (inactive)
NCI-H226
  GI50: 6.58 µM (inactive)
OVCAR-4
  GI50: 5.35 µM (inactive)
A549
  GI50: 13.2 µM (inactive)
UACC-62
  GI50: 4.61 µM (inactive)
HOP-62
  GI50: 12 µM (inactive)
DU-145
  GI50: 12.8 µM (inactive)
SK-MEL-28
  GI50: 2.08 µM (inactive)
M14
  GI50: 1.79 µM (inactive)
HOP-92
  GI50: 5.52 µM (inactive)
UACC-257
  GI50: 1.84 µM (inactive)
UO-31
  GI50: 4.36 µM (inactive)
MDA-MB-435
  GI50: 3.1 µM (inactive)
MDA-N
  GI50: 4.12 µM (inactive)
T47D
  GI50: 2.05 µM (inactive)
OVCAR-8
  GI50: 12.7 µM (inactive)
LOX IMVI
  GI50: 4.91 µM (inactive)
ACHN
  GI50: 8.3 µM (inactive)
NCI-H522
  GI50: 7.94 µM (inactive)
786-0
  GI50: 11 µM (inactive)
RPMI-8226
  GI50: 2.48 µM (inactive)
Hs-578T
  GI50: 8.73 µM (inactive)
K562
  GI50: 1.86 µM (inactive)
SN12C
  GI50: 9.06 µM (inactive)
TK-10
  GI50: 4.45 µM (inactive)
BT-549
  GI50: 13.1 µM (inactive)
U-251
  GI50: 7.23 µM (inactive)
SF-295
  GI50: 13.2 µM (inactive)
OVCAR-3
  GI50: 8.49 µM (inactive)
A498
  GI50: 5.71 µM (inactive)
SF-268
  GI50: 9.06 µM (inactive)
CAKI-1
  GI50: 5.13 µM (inactive)
NCI-H23
  GI50: 14.3 µM (inactive)
IGROV-1
  GI50: 8.67 µM (inactive)
SK-MEL-2
  GI50: 5.79 µM (inactive)
SF-539
  GI50: 16.1 µM (inactive)
HCT-116
  GI50: 10.2 µM (inactive)
OVCAR-5
  GI50: 11.3 µM (inactive)
CCRF-CEM
  GI50: 2.23 µM (inactive)
HCT-15
  GI50: 6.43 µM
EKVX
  GI50: 10.7 µM (inactive)
NCI-H460
  GI50: 2.79 µM (inactive)
Malme-3M
  GI50: 6.49 µM (inactive)
SR
  GI50: 1.09 µM (active)
SNB-19
  GI50: 14.8 µM (inactive)
SK-OV-3
  GI50: 14.2 µM (inactive)
HT-29
  GI50: 3.52 µM (inactive)
NCI/ADR-RES
  GI50: 7.82 µM (inactive)
COLO 205
  GI50: 4.56 µM (inactive)
SW-620
  GI50: 8.3 µM (inactive)
MCF7
  GI50: 5.75 µM (inactive)

## O=C(CC(C(=O)c1ccco1)c1cccs1)c1cccs1 (centres undefined)
PC-3
  GI50: 42.5 µM (inactive)
RXF 393
  GI50: 51.3 µM (inactive)
SK-MEL-5
  GI50: 32.4 µM (inactive)
MDA-MB-231
  GI50: > 100 µM (inactive)
KM12
  GI50: 40.6 µM (inactive)
HL-60
  GI50: 27.2 µM (inactive)
HCC 2998
  GI50: 49.2 µM (inactive)
NCI-H226
  GI50: > 100 µM (inactive)
OVCAR-4
  GI50: 36 µM (inactive)
A549
  GI50: 41.7 µM (inactive)
UACC-62
  GI50: 36.3 µM (inactive)
HOP-62
  GI50: 87.7 µM (inactive)
DU-145
  GI50: > 100 µM (inactive)
SK-MEL-28
  GI50: 42.7 µM (inactive)
M14
  GI50: 46.6 µM (inactive)
HOP-92
  GI50: 59.4 µM (inactive)
UACC-257
  GI50: 24.8 µM (inactive)
UO-31
  GI50: 30.7 µM (inactive)
MDA-MB-435
  GI50: 35.9 µM (inactive)
MDA-N
  GI50: 37.6 µM (inactive)
T47D
  GI50: 28.2 µM (inactive)
OVCAR-8
  GI50: 44.7 µM (inactive)
LOX IMVI
  GI50: 37.3 µM (inactive)
ACHN
  GI50: 58.7 µM (inactive)
NCI-H522
  GI50: 41.9 µM (inactive)
786-0
  GI50: > 100 µM (inactive)
SNB-75
  GI50: 44.4 µM (inactive)
RPMI-8226
  GI50: 55.7 µM (inactive)
Hs-578T
  GI50: 49.9 µM (inactive)
SN12C
  GI50: 66.8 µM (inactive)
TK-10
  GI50: > 100 µM (inactive)
BT-549
  GI50: 46.5 µM (inactive)
U-251
  GI50: 67.5 µM (inactive)
SF-295
  GI50: 38.8 µM (inactive)
OVCAR-3
  GI50: 40.7 µM (inactive)
A498
  GI50: 96.2 µM (inactive)
SF-268
  GI50: 57.9 µM (inactive)
CAKI-1
  GI50: > 100 µM (inactive)
NCI-H23
  GI50: 58.5 µM (inactive)
IGROV-1
  GI50: 65.6 µM (inactive)
SK-MEL-2
  GI50: 37.4 µM (inactive)
SF-539
  GI50: > 100 µM (inactive)
HCT-116
  GI50: 32.9 µM (inactive)
OVCAR-5
  GI50: 61.4 µM (inactive)
HCT-15
  GI50: 50.2 µM
EKVX
  GI50: 24.9 µM (inactive)
NCI-H460
  GI50: 80.5 µM (inactive)
Malme-3M
  GI50: 96.2 µM (inactive)
SR
  GI50: 34.6 µM (inactive)
SNB-19
  GI50: > 100 µM (inactive)
SK-OV-3
  GI50: 87.1 µM (inactive)
HT-29
  GI50: 37.9 µM (inactive)
NCI/ADR-RES
  GI50: 36.1 µM (inactive)
COLO 205
  GI50: 51.9 µM (inactive)
SW-620
  GI50: 94.8 µM (inactive)
MCF7
  GI50: 46.8 µM (inactive)
